PubChem BioAssay AID588377 (NMMLSC, 2011)

target: Cell division control protein 42 homolog (Homo sapiens) (UniProt P60953); test: inhibition of fluorescent GTP binding to Cdc42 – biochemical, multiplex bead flow cytometry, round 1, SAR follow-up (AID 588377); conditions: GST-Cdc42 wt beads
Sequence (P60953 whole entry, looked up): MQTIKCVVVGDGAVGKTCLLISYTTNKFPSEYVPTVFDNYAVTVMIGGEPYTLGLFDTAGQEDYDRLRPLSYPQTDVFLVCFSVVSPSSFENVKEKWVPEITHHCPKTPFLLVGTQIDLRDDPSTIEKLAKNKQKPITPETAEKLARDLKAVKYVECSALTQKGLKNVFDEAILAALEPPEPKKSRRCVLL

| EC50 [µM] | SMILES |
| --- | --- |
| 0.823 | COc1ccc(C2CC(c3ccccc3)=NN2c2ccc(S(N)(=O)=O)cc2)cc1 (stereo not drawn) |
| 4.13 | NS(=O)(=O)c1ccc(N2N=C(c3ccccc3)CC2c2ccccc2)cc1 (stereo not drawn) |
| 3.94 | O=C(C#Cc1ccccc1)c1cccc([N+](=O)[O-])c1 |
